Reference: US20090042726A1, “Novel Herbicides” (SYNGENTA LIMITED, priority 2005, published 2009)

System: Monocotyledonous and dicotyledonous test plants
Assay: Herbicidal action, application pre-emergence (Example B1)
Assay type: in vivo
Set-up: key: 10=total damage to plant; 0=no damage to plant
Details: 1000 g/ha, evaluated after 9 or 13 days; for AGSTE herbicidal action (damage score 0-10): Agrostis-tenius; for AMARE herbicidal action (damage score 0-10): Amaranthus retroflexus; for DIGSA herbicidal action (damage score 0-10): Digitaria sanguinalis; for POATR herbicidal action (damage score 0-10): Poa trivialis; for SETIT herbicidal action (damage score 0-10): Setaria italica
Description: Monocotyledonous and dicotyledonous test plants were sown in sterilised standard soil in seed trays each having 96 cells. After one day (pre-emergence) under controlled conditions in a climatic chamber (cultivation at 23/17° C., day/night; 13 hours light; 50-60% humidity; after application at 24/19° C., day/night), the plants were treated with an aqueous spray solution of 1000 mg/l of the active ingredient used (including 10% DMSO as solvent). The plants were grown on in the climatic chamber until the test was evaluated (10=total damage to plant, 0=no damage to plant) after 9 or 13 days.

SMILES	AGSTE herbicidal action (damage score 0-10)	AMARE herbicidal action (damage score 0-10)	DIGSA herbicidal action (damage score 0-10)	POATR herbicidal action (damage score 0-10)	SETIT herbicidal action (damage score 0-10)
COc1cc(CS(=O)(=O)C2=NOC(C)(C)C2F)n(C)n1 (centres unmarked) [6.13]	10	10	9	10	–
Cn1cc(C(F)(F)F)c(CS(=O)(=O)C2=NOC(C)(C)C2F)n1 (centres unmarked) [4.03, 3-(4-fluoro-5,5-dimethyl-4,5-dihydro-isoxazol-3-ylsulfonylmethyl)-1-methyl-4-trifluoromethyl-1H-pyrazole]	10	8	10	10	7
C=CCn1nc(C[S+]([O-])C2=NOC(C)(C)C2F)c(C(F)(F)F)n1 (single isomer, unassigned) [7.09]	10	10	10	10	–
Cn1nc(C(F)(F)F)c(C[S+]([O-])C2=NOC(C)(C)C2Br)c1OCC(F)(F)F (mixture of isomers) [2.02]	10	7	10	5	7
CCn1ncc(CSC2=NOC(C)(C)C2F)n1 (centres unmarked) [Compound No. 7.34]	9	6	8	8	–
Cn1nc(C(F)(F)F)c(C[S+]([O-])C2=NOC(C)(C)C2Cl)c1OCC(F)(F)F (centres unmarked) [Compound No. 2.14, 4-Chloro-5,5-dimethyl-3-[1-methyl-5-(2,2,2-trifluoro-ethoxy)-3-trifluoromethyl-1H-pyrazol-4-ylmethylsulfinyl]-4,5-dihydro-isoxazole]	10	9	9	10	9
Cn1nc(C(F)(F)F)c(C[S+]([O-])C2=NOC(C)(C)C2F)c1OC(F)F (mixture of isomers) [2.23]	10	10	10	10	10
Cn1nnc(Br)c1CS(=O)(=O)C1=NOC(C)(C)C1F (centres unmarked) [11.03]	10	3	9	10	–
Cn1nc(C(F)(F)F)c(C[S+]([O-])C2=NOC(C)(C)C2F)c1OC(F)F (single isomer, unassigned) [2.25]	10	10	10	10	10
CCn1cc(C[S+]([O-])C2=NOC(C)(C)C2F)c(C(F)(F)F)n1 (mixture of isomers) [2.46]	10	10	9	10	–
CCc1nn(C)nc1C[S+]([O-])C1=NOC(C)(C)C1F (mixture of isomers) [7.32]	10	7	9	9	–
COc1cc(C[S+]([O-])C2=NOC(C)(C)C2F)n(C)n1 (mixture of isomers) [6.12]	10	10	10	10	–
CC1(C)ON=C([S+]([O-])Cc2c(F)cccc2F)C1F (single isomer, unassigned) [1.15]	10	9	9	10	9
Cn1nc(C(F)(F)F)cc1C[S+]([O-])C1=NOC(C)(C)C1F (mixture of isomers) [6.02]	10	10	9	10	–
Cn1nc(C[S+]([O-])C2=NOC(C)(C)C2F)c(C(F)(F)F)c1C#N (single isomer, unassigned) [4.08]	10	5	9	8	–
CC1(C)ON=C(S(=O)(=O)C(F)(F)c2ccccc2OC(F)(F)F)C1F (centres unmarked) [Compound No. 1.12]	10	9	9	0	8
CC(C)n1nc(C[S+]([O-])C2=NOC(C)(C)C2F)c(C(F)(F)F)n1 (single isomer, unassigned) [7.26]	9	0	5	6	–
Cn1nc(C(F)(F)F)c(C[S+]([O-])C2=NOC(C)(C)C2(Cl)Cl)c1OCC(F)(F)F (centres unmarked) [2.20]	5	4	9	8	7
CC(c1nn(C)cc1C(F)(F)F)S(=O)(=O)C1=NOC(C)(C)C1F (centres unmarked) [4.04, 3-(1-(4-fluoro-5,5-dimethyl-4,5-dihydro-isoxazol-3-ylsulfonyl)-eth-1 yl)-1-methyl-4-trifluoromethyl-1H-pyrazole]	10	9	9	8	9
Cn1nc(C(F)(F)F)c(CSC2=NOC(C)(C)C2F)c1OC(F)F (centres unmarked) [Compound No. 2.22]	10	9	9	9	9
Cn1nc(C(F)(F)F)cc1CSC1=NOC(C)(C)C1F (centres unmarked) [Compound No. 6.01]	9	0	8	0	–
Cn1nc(OCC(F)(F)F)c(C[S+]([O-])C2=NOC(C)(C)C2F)c1C(F)(F)F (single isomer, unassigned) [2.43]	0	8	9	10	8
CC1(C)ON=C(S(=O)(=O)Cc2cccnc2Cl)C1F (centres unmarked) [3.06]	10	8	0	10	–
CC(c1c(C(F)(F)F)nn(C)c1OCC(F)(F)F)S(=O)(=O)C1=NOC(C)(C)C1F (mixture of isomers) [Compound No. 2.12]	10	6	9	10	9
CC(C)n1nc(CS(=O)(=O)C2=NOC(C)(C)C2F)c(C(F)(F)F)n1 (centres unmarked) [7.27]	9	1	10	0	–
CC1(C)ON=C(S(=O)(=O)Cc2nn(C3CCCC3)nc2C(F)(F)F)C1F (centres unmarked) [7.14]	10	8	9	8	–
